Source: patent publication US11230526B1, “Cylcoalkenyl derivatives useful as agonists of the GPR120 and/or GPR40 receptors” (Janssen Pharmaceutica NV, priority 2018, dated 2022)

Columns and labels:
Format in all cases: cell-based
human GPR40 = biological target: T1, human GPR40 (Homo sapiens, UniProt O14842); test: GPR40 calcium flux assay, human GPR40; conditions: HEK293 cells stably expressing GPR40; table does not say human or rat
T1 construct: expressed in transfected cells
Summary of the method: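 Cells preincubated 1 h at 37° C. in HBSS, 20 mM HEPES, 0.1% BSA, then Fluo 8 calcium dye 30 min at 37° C. and 15 min at room temperature.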

Human GPR120 short form = biological target: T2, Human GPR120 short form (Homo sapiens, UniProt Q5NUL3); test: Human GPR120 calcium flux assay, Procedure Calcium B (4200 cells/well)
T2 construct: expressed in transfected cells
T2 sequence (Q5NUL3 1-361): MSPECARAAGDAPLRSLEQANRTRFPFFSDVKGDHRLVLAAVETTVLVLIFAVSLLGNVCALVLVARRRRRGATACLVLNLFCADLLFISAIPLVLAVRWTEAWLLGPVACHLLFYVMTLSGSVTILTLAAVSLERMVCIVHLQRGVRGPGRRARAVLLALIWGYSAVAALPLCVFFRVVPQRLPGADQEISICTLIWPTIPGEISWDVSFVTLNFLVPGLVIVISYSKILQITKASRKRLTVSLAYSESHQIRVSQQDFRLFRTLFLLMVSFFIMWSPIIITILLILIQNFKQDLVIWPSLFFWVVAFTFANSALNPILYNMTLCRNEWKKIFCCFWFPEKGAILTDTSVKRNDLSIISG
Summary of the method: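 HEK293 cells stably expressing human GPR120 (NM_001195755.1), 4200 cells/well, starved 1 h and loaded with Fluo-4 NW plus probenecid. Ligand-evoked calcium flux read on FLIPR for 300 s after a 10 s baseline. RFU = Fmax−Fmin; EC50 from four-parameter concentration-response fit.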

[1] = biological target: T3, long form of human GPR120 (Homo sapiens, UniProt Q5NUL3); test: Human GPR120 DiscoveRx PathHunter Beta-Arrestin assay, Procedure β-arrestin A
T3 construct: host or cells: PathHunter CHO-K1 GPR120 β-Arrestin Cell Line
T3 sequence (Q5NUL3 1-377 isoform Q5NUL3-1): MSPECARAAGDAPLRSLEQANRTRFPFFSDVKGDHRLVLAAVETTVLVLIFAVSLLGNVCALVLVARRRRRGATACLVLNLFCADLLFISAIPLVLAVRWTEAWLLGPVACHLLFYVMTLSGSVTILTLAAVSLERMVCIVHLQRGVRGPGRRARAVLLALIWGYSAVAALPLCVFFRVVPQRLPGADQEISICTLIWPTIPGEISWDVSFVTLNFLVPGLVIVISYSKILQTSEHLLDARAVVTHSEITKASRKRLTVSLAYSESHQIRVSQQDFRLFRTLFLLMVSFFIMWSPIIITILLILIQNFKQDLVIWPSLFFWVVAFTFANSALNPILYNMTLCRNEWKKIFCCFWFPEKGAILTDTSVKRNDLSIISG
T3 sequence (P32121 whole entry partner): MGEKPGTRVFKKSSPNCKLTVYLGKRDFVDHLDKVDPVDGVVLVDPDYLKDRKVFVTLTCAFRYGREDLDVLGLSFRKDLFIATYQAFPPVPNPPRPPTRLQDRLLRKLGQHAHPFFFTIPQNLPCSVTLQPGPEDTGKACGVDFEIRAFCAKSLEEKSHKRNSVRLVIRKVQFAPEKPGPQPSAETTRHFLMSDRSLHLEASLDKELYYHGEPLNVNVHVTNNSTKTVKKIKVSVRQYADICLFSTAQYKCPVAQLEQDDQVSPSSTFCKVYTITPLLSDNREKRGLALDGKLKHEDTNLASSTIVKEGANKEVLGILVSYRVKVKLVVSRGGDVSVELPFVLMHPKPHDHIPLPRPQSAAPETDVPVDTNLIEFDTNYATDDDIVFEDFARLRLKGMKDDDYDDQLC
Summary of the method: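 PathHunter CHO-K1 cells expressing long-form human GPR120 (3000/well) were seeded overnight. They were then preincubated 60 min in HBSS with 20 mM HEPES and 0.1% BSA, pH 7.4, and exposed to compound for 90 min at 37 °C. β-Arrestin recruitment was read as β-gal complementation luminescence. EC50 came from % activity versus positive control, Hill slope fixed at 1.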

T1 sequence (O14842 whole entry): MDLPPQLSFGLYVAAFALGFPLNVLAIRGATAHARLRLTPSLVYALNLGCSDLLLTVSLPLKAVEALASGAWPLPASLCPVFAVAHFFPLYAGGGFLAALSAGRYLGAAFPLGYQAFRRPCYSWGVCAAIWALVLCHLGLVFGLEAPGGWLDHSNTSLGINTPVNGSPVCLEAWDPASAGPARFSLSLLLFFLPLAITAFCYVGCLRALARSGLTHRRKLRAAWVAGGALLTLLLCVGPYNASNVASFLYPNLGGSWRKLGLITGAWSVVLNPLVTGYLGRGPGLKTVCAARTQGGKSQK

EC50 (human GPR40) [nM]	EC50 (Human GPR120 short form) [nM]	EC50 [1] [nM]	Compound
> 5000	156	227	COc1ncc(C2=C(COc3ccc(CCC(=O)O)c(C)c3C)CCC2)cc1F [Compound 223, 3-[4-[[2-(5-fluoro-6-methoxy-3-pyridyl)cyclopenten-1-yl]methoxy]-2,3-dimethyl-phenyl]Propanoic Acid]
> 5000	75	122	Cc1c(CCC(=O)O)ccc(OCC2=C(c3ccc(F)cc3)CCC(F)(F)C2)c1C [Compound 497, 3-[4-[[5,5-difluoro-2-(4-fluorophenyl)cyclohexen-1-yl]methoxy]-2,3-dimethyl-phenyl]Propanoic Acid]
> 5000	215	132	O=C(O)CCc1ccc(OCC2=C(c3ccc(F)cc3)CCC(F)(F)C2)cc1 [Compound 499, 3-[4-[[5,5-difluoro-2-(4-fluorophenyl)cyclohexen-1-yl]methoxy]phenyl]Propanoic Acid]
> 5000	364	155	Cc1c(CCC(=O)O)ccc(OCC2=C(c3ccc(Cl)cc3)CCC(C(C)C)C2)c1C (stereo not drawn) [Compound 501, 3-[4-[[2-(4-chlorophenyl)-5-isopropyl-cyclohexen-1-yl]methoxy]-2,3-dimethyl-phenyl]Propanoic Acid]
3750	255	639	Cc1cc(OCC2=C(c3ccc(F)cc3)CCC(F)(F)C2)ccc1CCC(=O)O [Compound 518, 3-[4-[[5,5-difluoro-2-(4-fluorophenyl)cyclohexen-1-yl]methoxy]-2-methyl-phenyl]Propanoic Acid]
3310	222	772	Cc1cc(OCC2=C(c3ccc(Cl)cc3)CCC(F)(F)C2)ccc1CCC(=O)O [Compound 519, 3-[4-[[2-(4-chlorophenyl)-5,5-difluoro-cyclohexen-1-yl]methoxy]-2-methyl-phenyl]Propanoic Acid]
4030	165	121	Cc1ccc(C2=C(COc3c(F)cc(CCC(=O)O)cc3F)CC(F)(F)CC2)cc1F [Compound 525, 3-[4-[[5,5-difluoro-2-(3-fluoro-4-methyl-phenyl)cyclohexen-1-yl]methoxy]-3,5-difluoro-phenyl]Propanoic Acid]
> 5000	133	187	Cc1cc(CCC(=O)O)ccc1OCC1=C(c2ccc(F)c(F)c2)CCC(F)(F)C1 [Compound 532, 3-[4-[[2-(3,4-difluorophenyl)-5,5-difluoro-cyclohexen-1-yl]methoxy]-3-methyl-phenyl]Propanoic Acid]
> 5000	309	532	O=C(O)CCc1cc(F)c(OCC2=C(c3ccc(F)c(F)c3)CCC(F)(F)C2)c(F)c1 [Compound 533, 3-[4-[[2-(3,4-difluorophenyl)-5,5-difluoro-cyclohexen-1-yl]methoxy]-3,5-difluoro-phenyl]Propanoic Acid]
> 5000	120	108	Cc1cc(CCC(=O)O)ccc1OCC1=C(c2ccc(F)cc2F)CCC(F)(F)C1 [Compound 535, 3-[4-[[2-(2,4-difluorophenyl)-5,5-difluoro-cyclohexen-1-yl]methoxy]-3-methyl-phenyl]Propanoic Acid]
> 5000	83	161	Cc1c(CCC(=O)O)ccc(OCC2=C(c3ccccc3)CCC(F)(F)C2)c1C [Compound 537, 3-[4-[(5,5-difluoro-2-phenyl-cyclohexen-1-yl)methoxy]-2,3-dimethyl-phenyl]Propanoic Acid]
> 5000	191	287	O=C(O)CCc1cc(F)c(OCC2=C(c3ccc(Cl)s3)CCC(F)(F)C2)c(F)c1 [Compound 543, 3-[4-[[2-(5-chloro-2-thienyl)-5,5-difluoro-cyclohexen-1-yl]methoxy]-3,5-difluoro-phenyl]Propanoic Acid]

Second part, the molecule before the results:

Compound	EC50 (human GPR40) [nM]	EC50 (Human GPR120 short form) [nM]	EC50 [1] [nM]
COc1ncc(C2=C(COc3ccc(CCC(=O)O)cc3C)CCC2)cc1F [Compound 222, 3-[4-[[2-(5-fluoro-6-methoxy-3-pyridyl)cyclopenten-1-yl]methoxy]-3-methyl-phenyl]Propanoic Acid]	> 5000	57	132
COc1ncc(C2=C(COc3c(F)cc(CCC(=O)O)cc3F)CCC2)cc1F [Compound 224, 3-[3,5-difluoro-4-[[2-(5-fluoro-6-methoxy-3-pyridyl)cyclopenten-1-yl]methoxy]phenyl]Propanoic Acid]	> 5000	285	231
CCOc1ccc(C2=C(COc3ccc(CCC(=O)O)cc3C)CCC2)cn1 [Compound 225, 3-[4-[[2-(6-ethoxy-3-pyridyl)cyclopenten-1-yl]methoxy]-3-methyl-phenyl]Propanoic Acid]	> 5000	530	588
CCOc1ccc(C2=C(COc3c(F)cc(CCC(=O)O)cc3F)CCC2)cn1 [Compound 226, 3-[4-[[2-(6-ethoxy-3-pyridyl)cyclopenten-1-yl]methoxy]-3,5-difluoro-phenyl]Propanoic Acid]	> 5000	724	1290
O=C(O)CCc1ccc(OCC2=C(c3ccc(F)cc3)CC(F)(F)C2)cc1 [Compound 228, 3-[4-[[4,4-difluoro-2-(4-fluorophenyl)cyclopenten-1-yl]methoxy]phenyl]Propanoic Acid]	4930	124	238
O=C(O)CCc1ccc(OCC2=C(c3ccc(F)cc3)CCC(F)(F)C2)cc1C(F)(F)F [Compound 489, 3-[4-[[5,5-difluoro-2-(4-fluorophenyl)cyclohexen-1-yl]methoxy]-2-(trifluoromethyl)phenyl]Propanoic Acid]	825	173	312
Cc1cc(CCC(=O)O)ccc1OCC1=C(c2ccc(F)cc2)CCC(F)(F)C1 [Compound 498, 3-[4-[[5,5-difluoro-2-(4-fluorophenyl)cyclohexen-1-yl]methoxy]-3-methyl-phenyl]Propanoic Acid]	> 5000	96	219
CCC1CCC(c2ccc(Cl)cc2)=C(COc2ccc(CCC(=O)O)c(C)c2C)C1 (stereo not drawn) [Compound 502, 3-[4-[[2-(4-chlorophenyl)-5-ethyl-cyclohexen-1-yl]methoxy]-2,3-dimethyl-phenyl]Propanoic Acid]	> 5000	147	192
CCC1CCC(COc2ccc(CCC(=O)O)c(C)c2C)=C(c2ccc(Cl)cc2)C1 (stereo not drawn) [Compound 522, 3-[4-[[2-(4-chlorophenyl)-4-ethyl-cyclohexen-1-yl]methoxy]-2,3-dimethyl-phenyl]Propanoic Acid]	> 5000	714	853
Cc1ccc(C2=C(COc3ccc(CCC(=O)O)c(C)c3C)CC(F)(F)CC2)cc1F [Compound 529, 3-[4-[[5,5-difluoro-2-(3-fluoro-4-methyl-phenyl)cyclohexen-1-yl]methoxy]-2,3-dimethyl-phenyl]Propanoic Acid]	> 5000	156	136
Cc1ccc(C2=C(COc3ccc(CCC(=O)O)cc3C)CC(F)(F)CC2)cc1F [Compound 530, 3-[4-[[5,5-difluoro-2-(3-fluoro-4-methyl-phenyl)cyclohexen-1-yl]methoxy]-3-methyl-phenyl]Propanoic Acid]	> 5000	68	73
Cc1c(CCC(=O)O)ccc(OCC2=C(c3ccc(F)cc3F)CCC(F)(F)C2)c1C [Compound 534, 3-[4-[[2-(2,4-difluorophenyl)-5,5-difluoro-cyclohexen-1-yl]methoxy]-2,3-dimethyl-phenyl]Propanoic Acid]	> 5000	96	157
O=C(O)CCc1cc(F)c(OCC2=C(c3ccc(F)cc3F)CCC(F)(F)C2)c(F)c1 [Compound 536, 3-[4-[[2-(2,4-difluorophenyl)-5,5-difluoro-cyclohexen-1-yl]methoxy]-3,5-difluoro-phenyl]Propanoic Acid]	> 5000	207	215
O=C(O)CCc1cc(F)c(OCC2=C(c3ccccc3)CCC(F)(F)C2)c(F)c1 [Compound 539, 3-[4-[(5,5-difluoro-2-phenyl-cyclohexen-1-yl)methoxy]-3,5-difluoro-phenyl]Propanoic Acid]	> 5000	192	292
Cc1cc(CCC(=O)O)ccc1OCC1=C(c2ccc(Cl)s2)CCC(F)(F)C1 [Compound 542, 3-[4-[[2-(5-chloro-2-thienyl)-5,5-difluoro-cyclohexen-1-yl]methoxy]-3-methyl-phenyl]Propanoic Acid]	2860	94	182
